Reference: PMC10518257 (Nature Cancer, 2023)

Tests used:
[1] = biological target: T1, panel of 255 (vepafestinib) or 256 (all other inhibitors) recombinant kinases (Homo sapiens, UniProt P07333); assay: Kinase selectivity profiling at a single concentration (Carna Biosciences); type: biochemical; conditions: 17 nM
T1 construct: purchased Carna Biosciences

[2] = biological target: T2, panel of 255 (vepafestinib) or 256 (all other inhibitors) recombinant kinases (Homo sapiens, UniProt P08922); assay: as above; type: biochemical; conditions: 17 nM
T2 construct: purchased Carna Biosciences

[3] = biological target: T3, panel of 255 (vepafestinib) or 256 (all other inhibitors) recombinant kinases (Homo sapiens, UniProt P07947); assay: as above; type: biochemical; conditions: 17 nM
T3 construct: purchased Carna Biosciences

[4] = biological target: T4, panel of 255 (vepafestinib) or 256 (all other inhibitors) recombinant kinases (Homo sapiens, UniProt P12931); assay: as above; type: biochemical; conditions: 17 nM
T4 construct: purchased Carna Biosciences

[5] = biological target: T5, panel of 255 (vepafestinib) or 256 (all other inhibitors) recombinant kinases (Homo sapiens, UniProt O60674); assay: as above; type: biochemical; conditions: 17 nM
T5 construct: purchased Carna Biosciences

[6] = biological target: T6, panel of 255 (vepafestinib) or 256 (all other inhibitors) recombinant kinases (Homo sapiens, UniProt Q16832); assay: as above; type: biochemical; conditions: 17 nM
T6 construct: purchased Carna Biosciences

[7] = biological target: T7, panel of 255 (vepafestinib) or 256 (all other inhibitors) recombinant kinases (Homo sapiens, UniProt P04629); assay: as above; type: biochemical; conditions: 17 nM
T7 construct: purchased Carna Biosciences

[8] = biological target: T8, panel of 255 (vepafestinib) or 256 (all other inhibitors) recombinant kinases (Homo sapiens, UniProt Q16288); assay: as above; type: biochemical; conditions: 17 nM
T8 construct: purchased Carna Biosciences

[9] = biological target: T9, panel of 255 (vepafestinib) or 256 (all other inhibitors) recombinant kinases (Homo sapiens, UniProt P52333); assay: as above; type: biochemical; conditions: 17 nM
T9 construct: purchased Carna Biosciences

[10] = biological target: T10, panel of 255 (vepafestinib) or 256 (all other inhibitors) recombinant kinases (Homo sapiens, UniProt P30530); assay: as above; type: biochemical; conditions: 22 nM
T10 construct: purchased Carna Biosciences

[11] = biological target: T11, panel of 255 (vepafestinib) or 256 (all other inhibitors) recombinant kinases (Homo sapiens, UniProt P41743); assay: as above; type: biochemical; conditions: 22 nM
T11 construct: purchased Carna Biosciences

[12] = biological target: T12, panel of 255 (vepafestinib) or 256 (all other inhibitors) recombinant kinases (Homo sapiens, UniProt P24941); assay: as above; type: biochemical; conditions: 22 nM
T12 construct: purchased Carna Biosciences

[13] = biological target: T13, panel of 255 (vepafestinib) or 256 (all other inhibitors) recombinant kinases (Homo sapiens, UniProt Q9UF33); assay: as above; type: biochemical; conditions: 22 nM
T13 construct: purchased Carna Biosciences

[14] = biological target: T14, panel of 255 (vepafestinib) or 256 (all other inhibitors) recombinant kinases (Homo sapiens, UniProt P17948); assay: as above; type: biochemical; conditions: 22 nM
T14 construct: purchased Carna Biosciences

[15] = biological target: T15, panel of 255 (vepafestinib) or 256 (all other inhibitors) recombinant kinases (Homo sapiens, UniProt P54762); assay: as above; type: biochemical; conditions: 22 nM
T15 construct: purchased Carna Biosciences

[16] = tested on: RET^G810R phosphorylation in Ba/F3 KIF5B–RET^G810R allograft tumors; assay: Western blotting of tumors 1 h after dosing (target engagement); type: in vivo, mice; conditions: 10 mg per kg and 30 mg per kg
[17] = biological target: T16, panel of 255 (vepafestinib) or 256 (all other inhibitors) recombinant kinases (Homo sapiens, UniProt Q7KZI7); assay: Kinase selectivity profiling at a single concentration (Carna Biosciences); type: biochemical; conditions: 23 nM
T16 construct: purchased Carna Biosciences

[18] = biological target: T17, panel of 255 (vepafestinib) or 256 (all other inhibitors) recombinant kinases (Homo sapiens, UniProt P17252); assay: as above; type: biochemical; conditions: 23 nM
T17 construct: purchased Carna Biosciences

[19] = biological target: T18, panel of 255 (vepafestinib) or 256 (all other inhibitors) recombinant kinases (Homo sapiens, UniProt Q9P286); assay: as above; type: biochemical; conditions: 23 nM
T18 construct: purchased Carna Biosciences

[20] = biological target: T19, panel of 255 (vepafestinib) or 256 (all other inhibitors) recombinant kinases (Homo sapiens, UniProt Q13177); assay: as above; type: biochemical; conditions: 23 nM
T19 construct: purchased Carna Biosciences

[21] = biological target: T20, panel of 255 (vepafestinib) or 256 (all other inhibitors) recombinant kinases (Homo sapiens, UniProt Q9Y6E0); assay: as above; type: biochemical; conditions: 23 nM
T20 construct: purchased Carna Biosciences

[22] = biological target: T21, panel of 255 (vepafestinib) or 256 (all other inhibitors) recombinant kinases (Homo sapiens, UniProt P31749); assay: as above; type: biochemical; conditions: 23 nM
T21 construct: purchased Carna Biosciences

[23] = biological target: T22, panel of 255 (vepafestinib) or 256 (all other inhibitors) recombinant kinases (Homo sapiens, UniProt P07948); assay: as above; type: biochemical; conditions: 23 nM
T22 construct: purchased Carna Biosciences

[24] = biological target: T23, panel of 255 (vepafestinib) or 256 (all other inhibitors) recombinant kinases (Homo sapiens, UniProt Q15759); assay: as above; type: biochemical; conditions: 23 nM
T23 construct: purchased Carna Biosciences

[25] = biological target: T24, panel of 255 (vepafestinib) or 256 (all other inhibitors) recombinant kinases (Homo sapiens, UniProt Q9NQU5); assay: as above; type: biochemical; conditions: 23 nM
T24 construct: purchased Carna Biosciences

[26] = tested on: LC-2/ad NSCLC xenograft; assay: Subcutaneous xenograft efficacy study; type: in vivo, BALB/c nude mice

T9 sequence (P52333 whole entry): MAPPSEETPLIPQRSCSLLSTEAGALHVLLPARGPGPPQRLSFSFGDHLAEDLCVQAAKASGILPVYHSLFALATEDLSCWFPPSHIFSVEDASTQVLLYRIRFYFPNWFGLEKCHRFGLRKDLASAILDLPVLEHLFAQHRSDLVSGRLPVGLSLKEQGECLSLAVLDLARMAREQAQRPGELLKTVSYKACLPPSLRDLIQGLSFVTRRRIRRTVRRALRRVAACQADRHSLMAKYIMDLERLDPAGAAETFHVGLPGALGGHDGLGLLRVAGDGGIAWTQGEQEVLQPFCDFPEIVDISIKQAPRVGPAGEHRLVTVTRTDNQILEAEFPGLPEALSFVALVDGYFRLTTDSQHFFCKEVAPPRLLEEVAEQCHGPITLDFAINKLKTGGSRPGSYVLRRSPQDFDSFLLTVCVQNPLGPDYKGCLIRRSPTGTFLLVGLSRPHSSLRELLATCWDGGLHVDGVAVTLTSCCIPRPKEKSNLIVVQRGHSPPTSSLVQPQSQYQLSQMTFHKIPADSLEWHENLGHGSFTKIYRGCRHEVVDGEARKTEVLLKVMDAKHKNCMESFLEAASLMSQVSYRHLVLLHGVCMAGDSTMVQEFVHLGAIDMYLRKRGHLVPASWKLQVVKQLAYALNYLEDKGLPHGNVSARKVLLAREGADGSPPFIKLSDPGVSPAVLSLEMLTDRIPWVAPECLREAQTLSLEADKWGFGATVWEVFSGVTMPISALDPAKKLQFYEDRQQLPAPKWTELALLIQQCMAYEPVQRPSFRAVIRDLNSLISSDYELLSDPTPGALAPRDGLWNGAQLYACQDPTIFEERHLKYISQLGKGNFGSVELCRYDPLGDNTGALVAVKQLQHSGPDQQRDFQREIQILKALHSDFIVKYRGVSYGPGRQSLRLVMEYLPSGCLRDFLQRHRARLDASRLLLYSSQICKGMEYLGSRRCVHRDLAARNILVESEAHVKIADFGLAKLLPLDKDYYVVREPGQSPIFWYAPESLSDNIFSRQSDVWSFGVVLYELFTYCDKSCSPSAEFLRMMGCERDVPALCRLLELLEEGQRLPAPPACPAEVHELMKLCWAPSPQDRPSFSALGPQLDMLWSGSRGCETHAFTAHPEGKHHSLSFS
T19 sequence (Q13177 whole entry): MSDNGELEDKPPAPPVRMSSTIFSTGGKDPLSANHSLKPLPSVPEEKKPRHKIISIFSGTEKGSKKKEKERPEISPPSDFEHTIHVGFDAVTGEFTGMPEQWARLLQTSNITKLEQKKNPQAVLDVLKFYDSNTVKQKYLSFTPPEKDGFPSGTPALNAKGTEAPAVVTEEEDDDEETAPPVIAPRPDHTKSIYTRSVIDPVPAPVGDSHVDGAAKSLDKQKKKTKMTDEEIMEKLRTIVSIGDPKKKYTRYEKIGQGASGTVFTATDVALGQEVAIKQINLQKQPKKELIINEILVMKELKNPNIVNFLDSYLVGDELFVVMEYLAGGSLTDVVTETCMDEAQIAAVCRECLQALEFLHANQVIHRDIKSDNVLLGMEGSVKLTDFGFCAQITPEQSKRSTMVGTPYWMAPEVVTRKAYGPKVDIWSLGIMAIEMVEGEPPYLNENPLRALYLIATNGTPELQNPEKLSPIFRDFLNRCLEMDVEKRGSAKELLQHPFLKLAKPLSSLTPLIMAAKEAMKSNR
T1 sequence (P07333 20-972): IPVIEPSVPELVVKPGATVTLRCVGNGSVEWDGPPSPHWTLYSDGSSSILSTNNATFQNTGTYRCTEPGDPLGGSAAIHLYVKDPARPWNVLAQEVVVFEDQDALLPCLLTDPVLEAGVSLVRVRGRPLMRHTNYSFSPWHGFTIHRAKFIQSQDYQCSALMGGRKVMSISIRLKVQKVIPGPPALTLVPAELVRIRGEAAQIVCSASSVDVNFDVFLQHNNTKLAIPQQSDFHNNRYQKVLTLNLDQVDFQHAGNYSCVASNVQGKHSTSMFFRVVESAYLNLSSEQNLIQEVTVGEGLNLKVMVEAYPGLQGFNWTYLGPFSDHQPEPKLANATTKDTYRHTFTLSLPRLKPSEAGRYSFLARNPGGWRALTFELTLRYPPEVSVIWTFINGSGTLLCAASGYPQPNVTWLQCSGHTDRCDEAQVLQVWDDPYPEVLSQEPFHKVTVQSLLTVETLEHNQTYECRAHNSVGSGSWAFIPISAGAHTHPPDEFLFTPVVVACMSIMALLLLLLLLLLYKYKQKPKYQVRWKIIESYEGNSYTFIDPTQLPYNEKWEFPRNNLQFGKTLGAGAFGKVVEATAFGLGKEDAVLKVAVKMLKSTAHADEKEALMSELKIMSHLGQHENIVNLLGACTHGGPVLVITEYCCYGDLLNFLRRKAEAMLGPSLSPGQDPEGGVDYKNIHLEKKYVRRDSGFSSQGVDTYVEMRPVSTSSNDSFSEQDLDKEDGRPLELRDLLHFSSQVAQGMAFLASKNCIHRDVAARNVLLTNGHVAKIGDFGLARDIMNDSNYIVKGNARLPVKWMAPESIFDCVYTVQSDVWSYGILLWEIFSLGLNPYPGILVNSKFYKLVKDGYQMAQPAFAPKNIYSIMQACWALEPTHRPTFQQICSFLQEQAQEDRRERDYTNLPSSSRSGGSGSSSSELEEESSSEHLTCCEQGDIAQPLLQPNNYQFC
T5 sequence (O60674 whole entry): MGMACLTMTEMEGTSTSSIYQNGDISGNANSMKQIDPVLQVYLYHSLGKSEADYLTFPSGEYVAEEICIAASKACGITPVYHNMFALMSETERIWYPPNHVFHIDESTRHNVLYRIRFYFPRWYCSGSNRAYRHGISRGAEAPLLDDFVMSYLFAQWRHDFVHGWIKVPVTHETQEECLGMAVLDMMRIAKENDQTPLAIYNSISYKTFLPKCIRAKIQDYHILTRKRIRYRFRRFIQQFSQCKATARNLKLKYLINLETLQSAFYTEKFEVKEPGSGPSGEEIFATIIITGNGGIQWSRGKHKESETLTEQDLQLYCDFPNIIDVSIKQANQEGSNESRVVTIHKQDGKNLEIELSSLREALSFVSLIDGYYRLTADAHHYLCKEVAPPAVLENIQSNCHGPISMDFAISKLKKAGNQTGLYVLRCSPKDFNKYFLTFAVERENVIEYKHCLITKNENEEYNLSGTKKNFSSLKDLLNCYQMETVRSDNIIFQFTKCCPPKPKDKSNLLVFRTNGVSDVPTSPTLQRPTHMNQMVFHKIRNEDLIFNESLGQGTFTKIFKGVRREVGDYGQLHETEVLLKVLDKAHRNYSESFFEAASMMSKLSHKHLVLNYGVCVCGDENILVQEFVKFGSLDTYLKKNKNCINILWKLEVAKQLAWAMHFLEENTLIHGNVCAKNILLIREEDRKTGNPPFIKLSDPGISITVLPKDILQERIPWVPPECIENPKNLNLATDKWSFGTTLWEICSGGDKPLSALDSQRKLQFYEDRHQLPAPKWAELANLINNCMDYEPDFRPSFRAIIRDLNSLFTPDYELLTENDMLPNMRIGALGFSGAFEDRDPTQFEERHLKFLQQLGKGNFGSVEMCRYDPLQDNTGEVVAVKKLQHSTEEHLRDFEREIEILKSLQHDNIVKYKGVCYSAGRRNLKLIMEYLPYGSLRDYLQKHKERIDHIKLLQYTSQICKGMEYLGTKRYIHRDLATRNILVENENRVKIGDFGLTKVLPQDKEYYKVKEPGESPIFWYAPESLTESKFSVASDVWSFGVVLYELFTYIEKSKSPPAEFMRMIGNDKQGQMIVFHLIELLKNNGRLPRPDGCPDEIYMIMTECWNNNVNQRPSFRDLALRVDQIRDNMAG
T3 sequence (P07947 whole entry): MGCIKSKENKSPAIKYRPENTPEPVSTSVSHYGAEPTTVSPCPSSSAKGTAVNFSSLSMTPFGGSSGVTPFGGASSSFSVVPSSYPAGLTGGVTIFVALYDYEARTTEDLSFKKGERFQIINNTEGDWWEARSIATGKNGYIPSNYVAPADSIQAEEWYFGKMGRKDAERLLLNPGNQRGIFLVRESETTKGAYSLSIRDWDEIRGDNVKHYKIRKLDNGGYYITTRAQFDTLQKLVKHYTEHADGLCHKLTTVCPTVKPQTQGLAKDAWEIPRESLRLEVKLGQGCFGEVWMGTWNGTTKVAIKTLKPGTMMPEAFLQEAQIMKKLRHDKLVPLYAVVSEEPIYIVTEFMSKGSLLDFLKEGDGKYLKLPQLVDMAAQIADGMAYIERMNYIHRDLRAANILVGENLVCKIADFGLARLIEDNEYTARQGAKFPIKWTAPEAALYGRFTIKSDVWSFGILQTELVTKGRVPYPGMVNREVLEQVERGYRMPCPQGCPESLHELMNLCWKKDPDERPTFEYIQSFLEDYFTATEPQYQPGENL

CO[C@]1(C(=O)N[C@@H](C)c2ccc(-n3cc(F)cn3)nc2)CC[C@H](c2nc(C)cc(Nc3cc(C)[nH]n3)n2)CC1 [Pralsetinib]
% Inhibiton FMS [1]: 25.5% | % Inhibiton ROS [2]: 40% | % Inhibiton YES [3]: 37.6% | % Inhibiton SRC [4]: 34.5% | % Inhibiton JAK2 [5]: 101.5% | % Inhibiton DDR2 [6]: 72.5% | % Inhibiton TRKA [7]: 40.8% | % Inhibiton TRKC [8]: 57.7% | % Inhibiton JAK3 [9]: 72.3%

COc1ccc(CN2C3CC2CN(c2ccc(-c4cc(OCC(C)(C)O)cn5ncc(C#N)c45)cn2)C3)cn1 [Selpercatinib]
% Inhibiton AXL [10]: 18.1% | % Inhibiton PKCι [11]: 12.7% | % Inhibiton CDK2/CycA2 [12]: 17.9% | % Inhibiton EPHA6 [13]: 17.3% | % Inhibiton FLT1 [14]: 45.4% | % Inhibiton EPHB1 [15]: 36.2%

COCc1ccc(NC(=O)c2c(C#CCN3CCOCC3)n(C3(C)CC3)c3ncnc(N)c23)cc1 [Vepafestinib, 4-amino-N-[4-(methoxymethyl)phenyl]-7-(1-methylcyclopropyl)-6-[3-(morpholin-4-yl)prop-1-yn-1-yl]-7H-pyrrolo[2,3-d]pyrimidine-5-carboxamide]
inhibition of RET^G810R phosphorylation in tumors [16]: completely inhibited | % Inhibiton MARK2 [17]: 14.1% | % Inhibiton PKCα [18]: 9.1% | % Inhibiton PAK5 [19]: 10.8% | % Inhibiton PAK2 [20]: 19% | % Inhibiton MST3 [21]: 13.4% | % Inhibiton AKT1 [22]: 7.9% | % Inhibiton LYNa [23]: 6.7% | % Inhibiton p38β [24]: 7% | % Inhibiton PAK6 [25]: 7.4% | Tumor Volume (mm3) Mean ([26]; 25 mg/kg BID, day 0): 143.372 mm3 | Tumor Volume (mm3) Mean ([26]; 25 mg/kg BID, day 4): 128.076 mm3 | Tumor Volume (mm3) Mean ([26]; 25 mg/kg BID, day 8): 127.413 mm3 | Tumor Volume (mm3) Mean ([26]; 25 mg/kg BID, day 11): 123.160 mm3 | Tumor Volume (mm3) Mean ([26]; 25 mg/kg BID, day 15): 151.811 mm3 | Tumor Volume (mm3) Mean ([26]; 50 mg/kg BID, day 0): 140.580 mm3 | Tumor Volume (mm3) Mean ([26]; 50 mg/kg BID, day 4): 117.460 mm3 | Tumor Volume (mm3) Mean ([26]; 50 mg/kg BID, day 8): 119.902 mm3 | Tumor Volume (mm3) Mean ([26]; 50 mg/kg BID, day 11): 105.200 mm3 | Tumor Volume (mm3) Mean ([26]; 50 mg/kg BID, day 15): 98.169 mm3 | Tumor Volume (mm3) Mean ([26]; 50 mg/kg QD, day 0): 140.683 mm3 | Tumor Volume (mm3) Mean ([26]; 50 mg/kg QD, day 4): 139.893 mm3 | Tumor Volume (mm3) Mean ([26]; 50 mg/kg QD, day 8): 112.730 mm3 | Tumor Volume (mm3) Mean ([26]; 50 mg/kg QD, day 11): 118.521 mm3 | Tumor Volume (mm3) Mean ([26]; 50 mg/kg QD, day 15): 131.887 mm3
